Data reported in patent US9365562B2, “1,3 substituted azetidine PDE10 inhibitors” (Merck Sharp & Dohme Corp., priority 2011, dated 2016).
pKi: −log10 of the molar value.

Molecular target: human PDE10A2 (Homo sapiens (Human), UniProt Q9Y233)
Test: PDE10 fluorescence polarization (IMAP FP) inhibition assay
Type: biochemical
Settings: apparent inhibition constant, FAM-labeled cAMP substrate 50 nM, room temperature
Summary of the method: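 Cytoplasmic lysate of AD293 cells transiently expressing human PDE10A2, enzyme preincubated 60 min at room temperature with compounds (1% DMSO), then 50 nM FAM-cAMP added for 60 min. Buffer 10 mM Tris HCl pH 7.2, 10 mM MgCl2, 1 mM DTT; IMAP binding reagent stop, FP read after ≥1 h.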

human PDE10A2, sequence (Q9Y233 267-1055): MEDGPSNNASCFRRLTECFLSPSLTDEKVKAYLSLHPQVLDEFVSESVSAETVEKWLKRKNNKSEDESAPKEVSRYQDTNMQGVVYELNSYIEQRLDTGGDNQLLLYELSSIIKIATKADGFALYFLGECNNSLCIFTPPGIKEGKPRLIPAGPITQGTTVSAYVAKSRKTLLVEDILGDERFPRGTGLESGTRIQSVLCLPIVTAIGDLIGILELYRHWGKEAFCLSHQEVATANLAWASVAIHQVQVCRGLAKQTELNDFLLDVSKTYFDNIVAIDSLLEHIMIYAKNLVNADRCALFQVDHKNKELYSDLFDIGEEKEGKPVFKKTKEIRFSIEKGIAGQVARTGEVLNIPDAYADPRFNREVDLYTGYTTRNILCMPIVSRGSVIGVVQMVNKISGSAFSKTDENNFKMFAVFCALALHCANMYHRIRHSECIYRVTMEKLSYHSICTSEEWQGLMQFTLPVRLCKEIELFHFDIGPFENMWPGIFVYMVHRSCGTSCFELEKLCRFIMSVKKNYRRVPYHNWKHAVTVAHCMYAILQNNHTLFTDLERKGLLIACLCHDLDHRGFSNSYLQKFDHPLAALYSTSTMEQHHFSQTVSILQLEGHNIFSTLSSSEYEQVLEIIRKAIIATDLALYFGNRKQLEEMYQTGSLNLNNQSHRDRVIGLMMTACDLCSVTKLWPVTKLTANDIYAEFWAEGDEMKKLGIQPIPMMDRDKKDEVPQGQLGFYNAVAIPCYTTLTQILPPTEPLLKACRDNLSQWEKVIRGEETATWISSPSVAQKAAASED

Row | Structure (SMILES) | pKi
1 | CC(=O)c1ccnc(-c2cc(N3CC(c4nc5ccccc5n4C)C3)nc(C)n2)c1 [Example 101, 1-(2-(2-methyl-6-(3-(1-methyl-1H-benzo[d]imidazol-2-yl)azetidin-1-yl)pyrimidin-4-yl)pyridin-4-yl)ethanone] | 7.51
2 | Cc1nc(N2CC(c3nc4ccccc4n3C)C2)cc(-n2nc(C)nc2C2CC2)n1 [Example 36, 2-(1-(6-(5-cyclopropyl-3-methyl-1H-1,2,4-triazol-1-yl)-2-methylpyrimidin-4-yl)azetidin-3-yl)-1-methyl-1H-benzo[d]imidazole] | 8.35
3 | COC(=O)CCc1nc(C)nn1-c1cc(N2CC(c3nc4ccccc4n3C)C2)nc(C)n1 [Example 43, methyl 3-(3-methyl-1-(2-methyl-6-(3-(1-methyl-1H-benzo[d]imidazol-2-yl)azetidin-1-yl)pyrimidin-4-yl)-1H-1,2,4-triazol-5-yl)propanoate] | 9.31
4 | Cc1nc(N2CC(c3nc4ccccc4n3C)C2)cc(-n2ccc(C(C)C)n2)n1 [Example 14, 2-(1-(6-(3-isopropyl-1H-pyrazol-1-yl)-2-methylpyrimidin-4-yl)azetidin-3-yl)-1-methyl-1H-benzo[d]imidazole] | 9.19
5 | Cc1noc(COc2nc(N3CC(c4nc5ccccc5n4C)C3)cc(-n3nc(C)nc3C)n2)n1 [Example 75, 5-(((4-(3,5-dimethyl-1H-1,2,4-triazol-1-yl)-6-(3-(1-methyl-1H-benzo[d]imidazol-2-yl)azetidin-1-yl)pyrimidin-2-yl)oxy)methyl)-3-methyl-1,2,4-oxadiazole] | 9.15
6 | COCc1nc(C)nn1-c1cc(N2CC(c3nc4ccccc4n3C)C2)nc(C2CC2)n1 [Example 65, 2-(1-(2-cyclopropyl-6-(5-(methoxymethyl)-3-methyl-1H-1,2,4-triazol-1-yl)pyrimidin-4-yl)azetidin-3-yl)-1-methyl-1H-benzo[d]imidazole] | 8.60
7 | Cc1nc(C)n(-c2cc(N3CC(c4nc5ccccc5n4C)C3)nc(-n3cccn3)n2)n1 [Example 76, 2-(1-(6-(3,5-dimethyl-1H-1,2,4-triazol-1-yl)-2-(1H-pyrazol-1-yl)pyrimidin-4-yl)azetidin-3-yl)-1-methyl-1H-benzo[d]imidazole] | 9.21
8 | Cc1nc(N2CC(c3nc4ccccc4n3C)C2)cc(-n2nc(C)nc2-c2ccccc2F)n1 [Example 51, 2-(1-(6-(5-(2-fluorophenyl)-3-methyl-1H-1,2,4-triazol-1-yl)-2-methylpyrimidin-4-yl)azetidin-3-yl)-1-methyl-1H-benzo[d]imidazole] | 8.92
9 | Cc1nc(-c2ccc(Cl)cn2)cc(N2CC(c3nc4ccccc4n3C)C2)n1 [Example 99, 2-(1-(6-(5-chloropyridin-2-yl)-2-methylpyrimidin-4-yl)azetidin-3-yl)-1-methyl-1H-benzo[d]imidazole] | 8.96
10 | COc1nc(C)ccc1-c1cc(N2CC(c3nc4ccccc4n3C)C2)nc(C)n1 [Example 84, 2-(1-(6-(2-methoxy-6-methylpyridin-3-yl)-2-methylpyrimidin-4-yl)azetidin-3-yl)-1-methyl-1H-benzo[d]imidazole] | 7.57
11 | Cc1nc(N2CC(c3nc4ccccc4n3C)C2)cc(-n2nc(C)nc2-c2cccnc2)n1 [Example 52, 1-methyl-2-(1-(2-methyl-6-(3-methyl-5-(pyridin-3-yl)-1H-1,2,4-triazol-1-yl)pyrimidin-4-yl)azetidin-3-yl)-1H-benzo[d]imidazole] | 8.12
12 | Cc1nc(N2CC(c3nc4ccccc4n3C)C2)cc(-n2nc(C(F)(F)F)nc2C)n1 [Example 21, 1-methyl-2-(1-(2-methyl-6-(5-methyl-3-(trifluoromethyl)-1H-1,2,4-triazol-1-yl)pyrimidin-4-yl)azetidin-3-yl)-1H-benzo[d]imidazole] | 8.15
13 | Cc1nc(N2CC(c3nc4ccccc4n3C)C2)cc(-n2nc(C)nc2-c2ccccc2)n1 [Example 49, 1-methyl-2-(1-(2-methyl-6-(3-methyl-5-phenyl-1H-1,2,4-triazol-1-yl)pyrimidin-4-yl)azetidin-3-yl)-1H-benzo[d]imidazole] | 8.17
14 | Cc1cn(-c2cc(N3CC(c4nc5ccccc5n4C)C3)nc(C)n2)nn1 [Example 29, 1-methyl-2-(1-(2-methyl-6-(4-methyl-1H-1,2,3-triazol-1-yl)pyrimidin-4-yl)azetidin-3-yl)-1H-benzo[d]imidazole] | 8.51
15 | COc1nc(N2CC(c3nc4ccccc4n3C)C2)cc(-n2ncc(C)n2)n1 [Example 34, 2-{1-[2-methoxy-6-(4-methyl-2H-1,2,3-triazol-2-yl)pyrimidin-4-yl]azetidin-3-yl}-1-methyl-1H-benzimidazole] | 8.85
16 | Cc1nc(N2CC(c3nc4ccccc4n3C)C2)cc(-n2cc(CO)cn2)n1 [Example 19, (1-(2-methyl-6-(3-(1-methyl-1H-benzo[d]imidazol-2-yl)azetidin-1-yl)pyrimidin 4-yl)-1H-pyrazol-4-yl)methanol] | 8.08

Row | Structure (SMILES) | pKi
17 | CC(=O)Nc1ncccc1-c1cc(N2CC(c3nc4ccccc4n3C)C2)nc(C)n1 [Example 83, N-(3-(2-methyl-6-(3-(1-methyl-1H-benzo[d]imidazol-2-yl)azetidin-1-yl)pyrimidin-4-yl)pyridin-2-yl)acetamide] | 7.12
18 | CCCn1c(C2CN(c3cc(-n4nc(C)nc4C)nc(C)n3)C2)nc2ccccc21 [Example 118, 2-(1-(6-(3,5-dimethyl-1H-1,2,4-triazol-1-yl)-2-methylpyrimidin-4-yl)azetidin-3-yl)-1-propyl-1H-benzo[d]imidazole] | 7.89
19 | Cc1ccc(-c2nc(C)nn2-c2cc(N3CC(c4nc5ccccc5n4C)C3)nc(C)n2)cn1 [Example 55, 1-methyl-2-(1-(2-methyl-6-(3-methyl-5-(6-methylpyridin-3-yl)-1H-1,2,4-triazol-1-yl)pyrimidin-4-yl)azetidin-3-yl)-1H-benzo[d]imidazole] | 8.00
20 | Cc1nc(N2CC(c3nc4ccccc4n3CCCC#N)C2)cc(-n2nc(C)nc2C)n1 [Example 121, 4-(2-(1-(6-(3,5-dimethyl-1H-1,2,4-triazol-1-yl)-2-methylpyrimidin-4-yl)azetidin-3-yl)-1H-benzo[d]imidazol-1-yl)butanenitrile] | 8.02
21 | Cc1cn(-c2cc(N3CC(c4nc5ccccc5n4C)C3)nc(C(F)(F)F)n2)nn1 [Example 30, 1-methyl-2-(1-(6-(4-methyl-1H-1,2,3-triazol-1-yl)-2-(trifluoromethyl)pyrimidin-4-yl)azetidin-3-yl)-1H-benzo[d]imidazole] | 8.25
22 | Cc1cc(C(F)(F)F)n(-c2cc(N3CC(c4nc5ccccc5n4C)C3)nc(C)n2)n1 [Example 10, 1-methyl-2-(1-(2-methyl-6-(3-methyl-5-(trifluoromethyl)-1H-pyrazol-1-yl)pyrimidin-4-yl)azetidin-3-yl)-1H-benzo[d]imidazole] | 8.40
23 | Cc1cnc(-c2nc(C)nn2-c2cc(N3CC(c4nc5ccccc5n4C)C3)nc(C)n2)cn1 [Example 53, 1-methyl-2-(1-(2-methyl-6-(3-methyl-5-(5-methylpyrazin-2-yl)-1H-1,2,4-triazol-1-yl)pyrimidin-4-yl)azetidin-3-yl)-1H-benzo[d]imidazole] | 7.59
24 | Cc1cnn(-c2cc(N3CC(c4nc5ccccc5n4C)C3)nc(C3CC3)n2)n1 [Example 33, 2-(1-(2-cyclopropyl-6-(4-methyl-2H-1,2,3-triazol-2-yl)pyrimidin-4-yl)azetidin-3-yl)-1-methyl-1H-benzo[d]imidazole] | 9.27
25 | Cc1nc(C2CC2)n(-c2cc(N3CC(c4nc5ccccc5n4C)C3)nc(C(F)(F)F)n2)n1 [Example 68, 2-(1-(6-(5-cyclopropyl-3-methyl-1H-1,2,4-triazol-1-yl)-2-(trifluoromethyl)pyrimidin-4-yl)azetidin-3-yl)-1-methyl-1H-benzo[d]imidazole] | 8.85
26 | CCc1cnn(-c2cc(N3CC(c4nc5ccccc5n4C)C3)nc(C)n2)c1 [Example 15, 2-(1-(6-(4-ethyl-1H-pyrazol-1-yl)-2-methylpyrimidin-4-yl)azetidin-3-yl)-1-methyl-1H-benzo[d]imidazole] | 8.47
27 | Cc1nc(N2CC(c3nc4ccc(F)cc4[nH]3)C2)cc(-n2nc(C)nc2C)n1 [Example 109, 2-(1-(6-(3,5-dimethyl-1H-1,2,4-triazol-1-yl)-2-methylpyrimidin-4-yl)azetidin-3-yl)-6-fluoro-1H-benzo[d]imidazole] | 8.10
28 | Cc1nc(C)n(-c2cc(N3CC(c4nc5ccccc5n4C)C3)nc(OCc3ccnn3C)n2)n1 [Example 73, 2-(1-(6-(3,5-dimethyl-1H-1,2,4-triazol-1-yl)-2-((1-methyl-1H-pyrazol-5-yl)methoxy)pyrimidin-4-yl)azetidin-3-yl)-1-methyl-1H-benzo[d]imidazole] | 9.89
29 | COc1nc(N2CC(c3nc4ccccc4n3C)C2)cc(-n2cc(C)cn2)n1 [Example 4, 2-(1-(2-methoxy-6-(4-methyl-1H-pyrazol-1-yl)pyrimidin-4-yl)azetidin-3-yl)-1-methyl-1H-benzo[d]imidazole] | 9.09
30 | Cc1nc(-c2ncco2)cc(N2CC(c3nc4ccccc4n3C)C2)n1 [Example 104, 2-(2-methyl-6-(3-(1-methyl-1H-benzo[d]imidazol-2-yl)azetidin-1-yl)pyrimidin-4-yl)oxazole] | 7.70
31 | Cc1nc(N2CC(c3nc4ccccc4n3C)C2)cc(-n2nc(C)nc2-c2ccc(C#N)cc2)n1 [Example 54, 4-(3-methyl-1-(2-methyl-6-(3-(1-methyl-1H-benzo[d]imidazol-2-yl)azetidin-1-yl)pyrimidin-4-yl)-1H-1,2,4-triazol-5-yl)benzonitrile] | 7.80
32 | Cc1nc(N2CC(c3nc4ccccc4n3C)C2)cc(-n2nc(C)nc2C[C@@H](C)O)n1 [Example 41, (R)-1-(3-methyl-1-(2-methyl-6-(3-(1-methyl-1H-benzo[d]imidazol-2-yl)azetidin-1-yl)pyrimidin-4-yl)-1H-1,2,4-triazol-5-yl)propan-2-ol] | 9.00
